What all share (assay type): cell-based
Assay [1] has as its system stress-inducible HVA1 promoter. The experiment in a line: HVA1-SGFP reporter expression in maize leaf protoplasts under stress/ABA treatment. From the text: Responses to multiple stress treatments were monitored using green-fluorescent protein (GFP) as a vital reporter (Chiu et al. Curr. Biol. 6:225, 1996), using a single cell maize leaf protoplast system (Sheen, EMBO J 12:3497, 1993). A chimeric gene was generated by fusing the stress-inducible CDPK HVA1 promoter (Straub et al., Plant Mol. Biol. 26:617, 1994) to a synthetic GFP sequence (HVA1-SGFP) (Chiu et al. Curr. Biol. 6:225, 1996). The barley HVA1 promoter was obtained by PCR using barley genomic DNA and two primers: 5′[…]-3′ (SEQ ID NO: 17) and 5′-[…]-3′ (SEQ ID NO: 18). The HVA1 promoter and the SGFP were fused at the ATG NcoI site. The CDPK HVA1 gene has been reported to be activated by multiple stress signals in vegetative tissues (Straub et al., Plant Mol. Biol. 26:617, 1994). […]
Maize leaf protoplasts were electroporated with the plasmid DNA carrying HVA1-SGFP and divided (10^5 cells/ml per sample) for various treatments: constant light (15 μEm^−2S^−1) at 23° C. for sixteen hours (Control), 0° C. for four hours followed by twelve hours at 23° C. […] About 10^5 protoplasts from each treatment were observed using a fluorescence microscope as described by Chiu et al. (Curr. Biol. 6:225, 1996). […] About 50% of the protoplasts, showing green/yellow fluorescence after the induction, were transiently transformed. […]

For assay [2], the system named is HVA1 promoter. The experiment in a line: HVA1-LUC expression with constitutively active or null PP2C effector in maize leaf protoplasts. Particulars: ABA treatment. From the text:
To further support the idea that ATCDPK1 and ATCDPK1a are positive regulators in plant stress signal transduction, the effect of a specific and constitutively active Arabidopsis protein phosphatase 2C (PP2C) capable of abolishing ABA responses (Leung et al., Science 264:1448, 1994; Meyer et al., Science 264:1452, 1994; Armstrong et al., Proc. Natl. Acad. Sci. USA 92:9520, 1995) was examined as follows. Maize leaf protoplasts were electroporated with HVA1-LUC alone or with the effectors as indicated. […] The experiments with the constitutively active PP2C or the null PP2C were performed with two concentrations of plasmid DNA (+, 20 μg and ++, 60 μg) (FIG. 4C). LUC and GUS assays were performed with 2% of the cell lysates as described previously by Sheen (EMBO J. 12:3497, 1993; Jefferson, Plant Mol. Biol. Rep. 5:387, 1987; and Luehrsen et al., Meth. Enz. 216:397, 1992). Relative LUC activities from duplicated samples are shown. The experiment was repeated three times with similar results (FIG. 4C).

The test system of assay [3] is stress-inducible HVA1 promoter. Put plainly: HVA1-SGFP expression in maize leaf protoplasts treated with Ca2+ ionophores. Particulars: 1 mM Ca2+ alone or with 100 nM ionophore in incubation medium. From the text:
The role of Ca^2+ as a second messenger in multiple stress responses was also studied. The effects of increased intracellular Ca^2+ on HVA1-SGFP expression in maize leaf protoplasts using Ca^2+ ionophore was examined using standard methods as described below (Knight et al., Nature 352:524, 1991; Schroeder and Thuleau, Plant Cell 3:555, 1991; Braam, Proc. Natl. Acad. Sci. U.S.A. 89:3213, 1992; McAinsh et al., Plant Cell 4:1113, 1992; Assmann, Ann. Rev. Cell Biol. 9:345, 1993; Poovaiah and Reddy, Crit. Rev. Plant Sci. 12:185, 1993; Trewavas and Knight, Plant Mol. Biol. 26:1329, 1994; Ward and Schroeder, Plant Cell 6:669, 1994; Bethke et al., in Plant Hormones, Davies, Ed., (Kluwer Academic 1995) pp. 298–317; Bush, Ann. Rev. Plant Physiol. Plant Mol. Biol. 46:95, 1995; Monroy and Dhindsa, Plant Cell 7:32, 1995; and Knight et al., Plant Cell 8:489, 1996).
Maize leaf protoplasts transfected with HVA1-SGFP (HVA) or UBI-SGFP (UBI) were treated with 1 mM Ca^2+, 1 mM Ca^2+/100 nM A23187, and 1 mM Ca^2+/100 nM ionomycin, respectively designated “C,” “A,” and “I” in FIG. 2. UBI-SGFP was constructed by inserting the UBI promoter from pAHC27 (Christensen et al., Plant Mol. Biol. 18:675, 1992) into the SGFP vector (Chiu et al., Curr. Biol. 6:225, 1996). […] About 10^5 protoplasts from each treatment were observed using a fluorescence microscope (Chiu et al., Curr. Biol. 6:225, 1996). […]

For assay [4], the system named is HVA1 promoter. The experiment in a line: HVA1-LUC reporter co-expression with constitutive PK constructs in maize leaf protoplasts. As to conditions: co-electroporated constitutive (truncated) PK construct, without ABA. The method, then: For quantitating the effect of various constitutive PKs on stress signaling, another chimeric gene with the HVA1 promoter and the luciferase coding sequence (Leuhrsen et al., Meth. Enz. 216:397, 1992) (HVA1-LUC) was generated. Co-expression experiments were performed by electroporating the reporter (HVA1-LUC) and the effector (35SC4PSK-PK-HA) plasmids together into maize leaf protoplasts as follows.
Maize leaf protoplasts were transfected with HVA1-LUC alone and incubated without (FIG. 3E, “C”) or with 100 μM ABA (FIG. 3E, “A”). HVA1-LUC was also co-electroporated with the PK constructs (1–8) shown in FIG. 3C and FIG. 3D, and incubated without ABA (FIG. 3E, “1–8”). Relative LUC activities from duplicated samples are shown. About 2% of the cell lysates were used for LUC (Luehrsen et al., Meth. Enz. 216:397, 1992) and GUS assays (Sheen, EMBO J. 12:3497, 1993; and Jefferson, Plant Mol. Biol. Rep. 5:387, 1987). The experiment was repeated three times with similar results.

As to `CC1=CC(=O)CC(C)(C)[C@@]1(O)/C=C/C(C)=C\C(=O)O` [ABA, abscisic acid], the “GFP expression from HVA1-SGFP” value in assay [1] (1 μM ABA (data not shown)) was “visible”. In assay [1] (100 μM ABA for sixteen hours, fluorescence microscopy), the “expression of GFP from HVA1-SGFP” value is given as “enhanced”. In addition, in the assay on HVA1 promoter [2], the HVA1-LUC expression entry is recorded as “activated”.

`CNc1ccc2oc(C[C@H]3O[C@@]4(CC[C@H]3C)O[C@H]([C@H](C)C(=O)c3ccc[nH]3)[C@H](C)C[C@H]4C)nc2c1C(=O)O` [A23187]: the “expression of HVA1-GFP” value in assay [3] is listed as “significantly increased”.

As for `C[C@H](CCC(=O)O)C[C@H](C)C[C@H](C)C(=O)/C=C(\O)[C@H](C)C[C@H](C)C/C=C/[C@@H](C)[C@@H](O)[C@@H](C)[C@@H](O)C[C@@H]1CC[C@@](C)([C@H]2CC[C@@](C)([C@@H](C)O)O2)O1` [ionomycin], the “expression of HVA1-GFP” value in assay [3] is given as “significantly increased”.

B1: ATCDPK1a: truncated constitutively active Arabidopsis CDPK PK domain, SEQ ID NO: 2 (protein, listed as Arabidopsis thaliana)
chain: MANQTQISDKYILGRELGRGEFGITYLCTDRETREALACKSISKRKLRTAVDVEDVRREVTIMSTLPEHPNVVKLKATYEDNETVHLVMELCEGGELFGRIVARGHYTERAAATVARTIAEVVRMCHVNGVMHRDLKPENFLFANKKENSALKAIDFGLSVLFKPGERFTEIVGSPYYMAPEVLKRNYGPEVDVWSAGVILYILLCGVPPFWAETEQGVALAILRGVLDFKRDPWSQISESAKSLVKQMLEPDSTKRLTAQQVLDHPWIQNAKK
Take B1: the “LUC expression controlled by the HVA1 promoter” value with HVA1 promoter [4] was “specifically activate”.

(Values after patent publication US7084323B1, “Stress-protected transgenic plants” (The General Hospital Corporation, priority 1996, dated 2006).)
